{"source": "paper PMC11011439", "about": "“Influence of Molecular Design on the Tumor Targeting and Biodistribution of PSMA-Binding Tracers Labeled with Technetium-99m” (International Journal of Molecular Sciences, 2024)", "key": {"[1]": {"assay": "Stability of the [99mTc]Tc-maG3 complex in PBS and under cysteine challenge (radio-HPLC)", "assay_type": "physicochemical", "settings": "room temperature, 1 h", "method": "The iTLC data were cross-validated using radio-HPLC analysis, performed using a Hitachi Chromaster HPLC system with a radioactivity detector and Phenomenex Luna® C18 column (100 Å; 150 × 4.6 mm; 5 µm) at room temperature (20 °C), in the following conditions: solvent A: 0.1% trifluoroacetic acid (TFA) in H2O, solvent B: 0.1% TFA in acetonitrile, flow rate: 1 mL/min. For identity and purity analysis of [^99mTc]Tc-BQ0411 and [^99mTc]Tc-BQ0412, the method with a gradient from 5 to 60% solvent B over 20 min was used.\nTo evaluate the chemical stability of the [^99mTc]Tc-maG3 complex, fractions of radiolabeled conjugates (10 µL, 0.25 µg) were incubated with a 300× molar excess of cysteine or with PBS at room temperature for 1 h. The test was run in triplicate."}, "[2]": {"assay": "Octanol/water distribution coefficient (LogD)", "assay_type": "physicochemical", "settings": "n-octanol / Milli-Q water", "method": "The LogD was determined experimentally based on the procedure described earlier. Briefly, the radiolabeled compound of interest was added to a LoBind Eppendorf tube (Eppendorf, Hamburg, Germany) containing Milli-Q water (500 μL) and n-octanol (500 μL), and the mixture was vortexed and centrifuged. Thereafter, three fractions from each phase were collected and the activity was measured using a gamma counter. The LogD was calculated by dividing the average activity measured in octanol by the average activity measured in water."}, "[3]": {"target": "T1, PSMA (Homo sapiens, UniProt Q04609)", "T1 construct": "expressed in transfected cells; host or cells: PC3-pip cells (from Prof. Martin G. Pomper, Johns Hopkins University)", "T1 sequence (Q04609 whole entry)": "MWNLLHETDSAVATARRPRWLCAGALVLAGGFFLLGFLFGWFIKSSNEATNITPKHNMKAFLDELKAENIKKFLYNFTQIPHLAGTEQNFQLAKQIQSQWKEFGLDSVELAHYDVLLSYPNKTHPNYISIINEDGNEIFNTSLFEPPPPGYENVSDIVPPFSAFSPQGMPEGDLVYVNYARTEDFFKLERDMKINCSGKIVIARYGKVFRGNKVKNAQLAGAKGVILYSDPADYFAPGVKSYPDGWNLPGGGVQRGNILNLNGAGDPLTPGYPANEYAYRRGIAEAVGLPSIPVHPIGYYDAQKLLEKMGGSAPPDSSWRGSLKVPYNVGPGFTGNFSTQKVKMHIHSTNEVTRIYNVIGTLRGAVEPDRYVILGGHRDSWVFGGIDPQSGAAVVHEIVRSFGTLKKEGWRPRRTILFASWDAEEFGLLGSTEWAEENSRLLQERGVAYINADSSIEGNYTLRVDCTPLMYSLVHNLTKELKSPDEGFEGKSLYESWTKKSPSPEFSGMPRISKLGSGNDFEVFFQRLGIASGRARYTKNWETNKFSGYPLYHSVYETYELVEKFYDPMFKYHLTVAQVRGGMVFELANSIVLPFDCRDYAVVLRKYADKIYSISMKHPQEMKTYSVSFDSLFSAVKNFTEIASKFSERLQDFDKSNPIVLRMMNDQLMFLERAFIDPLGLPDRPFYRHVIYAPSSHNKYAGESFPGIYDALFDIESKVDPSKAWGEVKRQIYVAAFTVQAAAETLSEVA", "assay": "In vitro binding specificity (saturation with non-labeled PSMA-11) on PC3-pip cells", "settings": "2 nM tracer, 250-fold molar excess of PSMA-11, 1 h, 37 °C", "method": "For the in vitro binding specificity test, approximately 8 × 10^5 of PC3-pip cells per well were seeded in 6-well plates 24 h before the experiment. Cells in three control wells were pre-saturated with a 250-fold excess of non-labeled PSMA-11 15 min before the addition of radiotracers, while the second set was treated with complete media. After 15 min of incubation at room temperature, [^99mTc]Tc-labeled radioligands were added to all wells to reach a concentration of 2 nM. After one hour of incubation at 37 °C, the cells were washed with PBS solution, detached, and collected. Cell-associated activity was measured using a gamma counter and presented as the percentage of added activity."}, "[4]": {"target": "T1, PSMA", "assay": "Real-time binding kinetics on living PC3-pip cells (LigandTracer Yellow)", "settings": "5 nM tracer, 1:2 interaction model", "method": "The binding kinetics of [^99mTc]Tc-labeled BQ0411, BQ0412, and BQ0413 were measured in real time using LigandTracer Yellow Instruments (Ridgeview Instruments AB, Uppsala, Sweden) on PC3-pip cells, as described earlier. The activity binding was recorded at 5 nM on the radiolabeled tracers for 150 min. After measuring the binding kinetics, the medium containing the labeled tracer was replaced with fresh medium, and the dissociation was monitored over 7 h. […]"}, "[5]": {"tested_on": "PC3-pip cells", "assay": "Cellular processing (internalization) during continuous incubation", "assay_type": "cell-based", "settings": "2 nM, 37 °C", "method": "To evaluate the cellular processing of [^99mTc]Tc-labeled BQ0411 and BQ0412, PC3-pip cells were incubated with the radiolabeled tracer (2 nM), and at predetermined time points (1, 2, 4, and 8 h), cells were treated with 0.5 mL of 4 M urea solution in a 0.2 M glycine buffer, pH 2.5, for 5 min on ice. After that, the acidic supernatant was collected, and this fraction was considered to be the membrane-bound activity. To lyse the cells, 0.5 mL of 1 M sodium hydroxide solution was added and incubated at 37 °C for at least 20 min. The alkaline-containing solution was collected, and the basic fraction was considered to be the internalized activity."}, "[6]": {"assay": "Biodistribution in NMRI mice", "assay_type": "in vivo", "settings": "for activity in carcass / activity in intestines with content / uptake in blood / uptake in kidney / uptake in liver / uptake in lung / uptake in salivary glands / uptake in spleen / uptake in stomach: 40 pmol/mouse iv", "method": "Four NMRI mice were intravenously injected with 40 pmol of the radiotracer (60 kBq, the mass of the injected compound was adjusted with an unlabeled tracer). The mice were euthanized with a lethal intraperitoneal injection of ketamine/xylazine, followed by exsanguination at 3 and 24 h post-injection (pi). The organs of interest were collected, weighed, and measured for their activity content using a gamma counter. The uptake activity in organs was calculated as the percentage of injected activity per gram (%IA/g) for the blood, salivary glands, lungs, liver, spleen, stomach, and kidneys and as %IA for the remaining carcass and the rest of the intestines with content."}, "[7]": {"tested_on": "PSMA-expressing prostate cancer xenografts (PC3-pip)", "assay": "Biodistribution and tumor targeting in PC3-pip tumor-bearing mice", "assay_type": "in vivo, BALB/c nu/nu mice", "settings": "3 h pi", "method": "PSMA-expressing prostate cancer xenografts were implanted in BALB/c nu/nu mice by subcutaneous injection of PC3-pip cell suspension in PBS (10^7 cells/animal in 100 µL). The average tumor weight was 0.3 ± 0.2 g at the time of the experiment. Four mice per data point were used. Mice were intravenously injected with 5 nmol of the radiotracer (60 kBq, the mass of the injected compound was adjusted with an unlabeled tracer). The mice were euthanized 3 h pi, and the samples were treated as described above."}}, "note": "Marks after values point to notes of the source that are not given here."}
{"smiles": "CC(=O)NC(CCCCNC(=O)CNC(=O)C[N]1C(=O)C[N]2C(=O)C[N]3C(=O)C[S][99Tc-]132=[O])C(=O)NCCCCCCCC(=O)NC(Cc1ccc(O)cc1)C(=O)NC(Cc1ccc2ccccc2c1)C(=O)NCCCCC(NC(=O)NC(CCC(=O)O)C(=O)O)C(=O)O", "note": "(stereo not drawn) [[^99mTc]Tc-BQ0411]", "values": [{"measurement": "stability in the presence of cysteine", "setting": "[1]; 300-fold molar excess of cysteine", "result": "stable"}, {"measurement": "stability during incubation in PBS", "setting": "[1]; PBS", "result": "stable"}, {"measurement": "logD (octanol–water distribution coefficient)", "setting": "[2]", "result": "−2.3 ± 0.1"}, {"measurement": "binding to PC3-pip cells after pre-treatment with excess non-labeled PSMA-11", "setting": "[3]", "result": "significantly (p ˂ 0.0001) decreased"}, {"measurement": "ka1", "setting": "[4]", "result": 24000, "unit": "M⁻¹ s⁻¹"}, {"measurement": "ka2", "setting": "[4]", "result": 67000, "unit": "M⁻¹ s⁻¹"}, {"measurement": "kd1", "setting": "[4]", "result": "1.4e-05", "unit": "s⁻¹"}, {"measurement": "kd2", "setting": "[4]", "result": "2e-05", "unit": "s⁻¹"}, {"measurement": "internalized activity (of cell-associated activity)", "setting": "[5]; 4 h of continuous incubation", "result": "44 ± 1", "unit": "%"}, {"measurement": "internalized activity (of cell-associated activity)", "setting": "[5]; after 4 h (8 h of continuous incubation)", "result": "44.2 ± 0.7", "unit": "%"}, {"measurement": "activity in carcass", "setting": "[6]; 3 h pi", "result": "6.4 ± 0.8 *^,a,b %IA/sample"}, {"measurement": "activity in intestines with content", "setting": "[6]; 3 h pi", "result": "43 ± 6 *^,a,b %IA/sample"}, {"measurement": "uptake in blood", "setting": "[6]; 3 h pi", "result": "1.4 ± 0.7 *^,a %IA/g"}, {"measurement": "uptake in kidney", "setting": "[6]; 3 h pi", "result": "129 ± 22 *^,a,b %IA/g"}, {"measurement": "uptake in liver", "setting": "[6]; 3 h pi", "result": "0.8 ± 0.1 *^,a %IA/g"}, {"measurement": "uptake in lung", "setting": "[6]; 3 h pi", "result": "0.8 ± 0.1 *^,a %IA/g"}, {"measurement": "uptake in salivary glands", "setting": "[6]; 3 h pi", "result": "0.5 ± 0.1 *^,a,b %IA/g"}, {"measurement": "uptake in spleen", "setting": "[6]; 3 h pi", "result": "0.38 ± 0.07 *^,b %IA/g"}, {"measurement": "uptake in stomach", "setting": "[6]; 3 h pi", "result": "0.42 ± 0.07 *^,b %IA/g"}, {"measurement": "activity in carcass", "setting": "[6]; 24 h pi", "result": "0.21 ± 0.01 ^b %IA/sample"}, {"measurement": "activity in intestines with content", "setting": "[6]; 24 h pi", "result": "0.3 ± 0.2", "unit": "%IA/sample"}, {"measurement": "uptake in blood", "setting": "[6]; 24 h pi", "result": "0.027 ± 0.002 ^b %IA/g"}, {"measurement": "uptake in kidney", "setting": "[6]; 24 h pi", "result": "3.9 ± 0.6 ^b %IA/g"}, {"measurement": "uptake in liver", "setting": "[6]; 24 h pi", "result": "0.032 ± 0.004 ^b %IA/g"}, {"measurement": "uptake in lung", "setting": "[6]; 24 h pi", "result": "0.019 ± 0.005 ^b %IA/g"}, {"measurement": "uptake in salivary glands", "setting": "[6]; 24 h pi", "result": "0.022 ± 0.005 ^b %IA/g"}, {"measurement": "uptake in spleen", "setting": "[6]; 24 h pi", "result": "0.015 ± 0.002", "unit": "%IA/g"}, {"measurement": "uptake in stomach", "setting": "[6]; 24 h pi", "result": "0.06 ± 0.02 ^b %IA/g"}, {"measurement": "activity remaining in the body", "setting": "[6]; 3 h pi, excluding activity in the intestines with content", "result": "40–50 % from injected"}, {"measurement": "washout of activity from kidneys", "setting": "[6]; 24 h pi compared to 3 h pi", "result": 97, "unit": "%"}, {"measurement": "activity in carcass", "setting": "[7]; 5 nmol/mouse iv", "result": "3.5 ± 0.9", "unit": "%IA/sample"}, {"measurement": "activity in intestines with content", "setting": "[7]; 5 nmol/mouse iv", "result": "44 ± 5 ^a,b %IA/sample"}, {"measurement": "uptake in blood", "setting": "[7]; 5 nmol/mouse iv", "result": "1.0 ± 0.4 ^b %IA/g"}, {"measurement": "uptake in bone", "setting": "[7]; 5 nmol/mouse iv", "result": "0.20 ± 0.06", "unit": "%IA/g"}, {"measurement": "uptake in kidney", "setting": "[7]; 5 nmol/mouse iv", "result": "13 ± 6", "unit": "%IA/g"}, {"measurement": "uptake in liver", "setting": "[7]; 5 nmol/mouse iv", "result": "1.9 ± 0.7 ^a,b %IA/g"}, {"measurement": "uptake in lung", "setting": "[7]; 5 nmol/mouse iv", "result": "0.9 ± 0.3 ^a,b %IA/g"}, {"measurement": "uptake in muscle", "setting": "[7]; 5 nmol/mouse iv", "result": "0.17 ± 0.05", "unit": "%IA/g"}, {"measurement": "uptake in pancreas", "setting": "[7]; 5 nmol/mouse iv", "result": "0.2 ± 0.1", "unit": "%IA/g"}, {"measurement": "uptake in salivary glands", "setting": "[7]; 5 nmol/mouse iv", "result": "0.4 ± 0.1", "unit": "%IA/g"}, {"measurement": "uptake in small intestine", "setting": "[7]; 5 nmol/mouse iv", "result": "0.9 ± 0.4", "unit": "%IA/g"}, {"measurement": "uptake in spleen", "setting": "[7]; 5 nmol/mouse iv", "result": "1.0 ± 0.2", "unit": "%IA/g"}, {"measurement": "uptake in stomach", "setting": "[7]; 5 nmol/mouse iv", "result": "0.4 ± 0.2", "unit": "%IA/g"}, {"measurement": "uptake in tumor", "setting": "[7]; 5 nmol/mouse iv", "result": "27 ± 4 ^a,b %IA/g"}, {"measurement": "tumor-to-blood ratio", "setting": "[7]; 5 nmol/mouse", "result": "32 ± 11 ^b"}, {"measurement": "tumor-to-bone ratio", "setting": "[7]; 5 nmol/mouse", "result": "146 ± 57"}, {"measurement": "tumor-to-kidney ratio", "setting": "[7]; 5 nmol/mouse", "result": "2.3 ± 0.8 ^a"}, {"measurement": "tumor-to-liver ratio", "setting": "[7]; 5 nmol/mouse", "result": "16 ± 7 ^a,b"}, {"measurement": "tumor-to-lung ratio", "setting": "[7]; 5 nmol/mouse", "result": "33 ± 9 ^b"}, {"measurement": "tumor-to-muscle ratio", "setting": "[7]; 5 nmol/mouse", "result": "173 ± 47 ^b"}, {"measurement": "tumor-to-pancreas ratio", "setting": "[7]; 5 nmol/mouse", "result": "121 ± 46"}, {"measurement": "tumor-to-salivary ratio", "setting": "[7]; 5 nmol/mouse", "result": "69 ± 16 ^b"}, {"measurement": "tumor-to-small intestine ratio", "setting": "[7]; 5 nmol/mouse", "result": "35 ± 18 ^b"}, {"measurement": "tumor-to-spleen ratio", "setting": "[7]; 5 nmol/mouse", "result": "24 ± 7"}, {"measurement": "tumor-to-stomach ratio", "setting": "[7]; 5 nmol/mouse", "result": "86 ± 43 ^b"}, {"measurement": "activity uptake in the gastrointestinal tract (with content)", "setting": "[7]", "result": "over 40 %IA"}, {"measurement": "tumor uptake, fold higher compared with [99mTc]Tc-BQ0412 and [99mTc]Tc-BQ0413", "setting": "[7]", "result": 1.6, "unit": "fold"}]}
